# In PubChem BioAssay AID179 (DTP/NCI, 2004):
# The source made the active and inactive calls.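 How the source made its calls: active means compounds giving half or more protection of infected cells from virus-caused growth loss, again on retest; inactive means the rest.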 Where a SMILES comes first, the peptide text is derived from it. [ ]: non-standard residue; d: D form. The star is where a group is joined. X4 = CC(C)(C)c1cc(OCC(=O)*)ccc1Sc1c(O)cc(-c2ccccc2)oc1=O; NMeLeu(3R-OH) = CN[C@H](C(=O)O)[C@H](O)C(C)C; NMeL = CN[C@@H](CC(C)C)C(=O)O; NMeV = CN[C@H](C(=O)O)C(C)C; dNMeS = CN[C@H](CO)C(=O)O; Abu = CC[C@H](N)C(=O)O
# Tested on: CEM cells HIV-1 protection, formazan growth assay
# Assay: NCI AIDS Antiviral Assay
# Conditions: for IC50: measured here: growth of uninfected CEM cells
# Procedure, shortened: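 Category rules: moderately active means at least 50% protection on retest, and confirmed active means 100% protection reproducibly. The underlying data came from a formazan growth assay in HIV-1-infected CEM cells.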
SMILES,EC50,IC50,outcome
O=C(Nc1ccc(C(F)(F)F)cc1)NC(F)(F)F,> 200 µM,> 200 µM,–
COc1ccc(/C=c2\sc3nc(-c4ccccc4)nn3c2=O)cc1,182 µM,195 µM,–
CCOC(=O)c1ccc(-c2cc(C)no2)[nH]1,> 200 µM,36.3 µM,–
O=C1N(c2ccccc2)C(=O)C2(SC=NN2Cc2ccccc2)N1c1ccccc1 (configuration not stated),–,–,inactive
O=C(O)c1cc(S(=O)(=O)O)c2cccnc2c1O,> 200 µM,> 200 µM,–
CC[C@@H]1NC(=O)[C@H]([C@H](O)C(C)C)N(C)C(=O)[C@H](C(C)C)N(C)C(=O)[C@H](CC(C)C)N(C)C(=O)[C@H](CC(C)C)N(C)C(=O)[C@@H](C)NC(=O)[C@H](CCCCNC(=O)COc2ccc(Sc3c(O)cc(-c4ccccc4)oc3=O)c(C(C)(C)C)c2)NC(=O)[C@H](CC(C)C)N(C)C(=O)[C@H](C(C)C)NC(=O)[C@H](CC(C)C)N(C)C(=O)[C@@H](CO)N(C)C1=O (cyclo([Abu][dNMeS][NMeL]V[NMeL]K(X4)[dA][NMeL][NMeL][NMeV][NMeLeu(3R-OH)])),> 67.6 µM,4.57 µM,–
CC(C)(C)Sc1nnc(SC(C)(C)C)c2c(=O)[nH]nc(SC(C)(C)C)c12,–,–,inactive
CN1CCC2(CC1)C(=O)N(NC(N)=O)C(=O)C2c1ccccc1 (configuration not stated),> 200 µM,> 200 µM,–
Cc1cc(N=Nc2c(O)c3ccccc3[nH]c2=O)ccc1N=Nc1ccc(C(=O)N(C)C)cc1,> 200 µM,151 µM,–
O=[N+]([O-])c1ccc(-c2nn3c(C45CC6CC(CC(C6)C4)C5)nnc3s2)c(Cl)c1,> 200 µM,> 200 µM,–
C1=NCCNCCN=Cc2ccc(cc2)OCc2cccc(n2)COc2ccc1cc2,> 100 µM,> 100 µM,–
ONC1=Nc2ccccc2C(=S)N2CSCC12 (configuration not stated),> 200 µM,> 200 µM,–
CSc1nc(C)cc(N(C)c2ccccc2)n1,> 200 µM,32.4 µM,–
Cc1ccccc1NC(=O)Cc1csc(N=Nc2c(O)[nH]c3ccccc23)n1,> 200 µM,> 200 µM,–
CCOC(=O)[C@@]12C3C=CC(CC3)[C@]1(C(=O)c1ccccc1)C(=O)C(=O)N2c1ccccc1 (some centres not stated),> 200 µM,110 µM,–
CCOC(=O)c1cc(C2CCN(Cc3ccccc3)C2=O)c(C(=O)/C=C(/C)N)[nH]1 (configuration not stated),> 200 µM,158 µM,–
c1ccc(-c2sc(-c3ccccc3)c3c2C2CCC3C2)cc1,> 200 µM,36.3 µM,–
Cc1ccc2nc3cc(C)c(=O)cc-3sc2c1,> 56.2 µM,37.2 µM,–
CC(C)[Si]1(C(C)C)OCC2OC3(CO)C(Oc4nc(=O)ccn43)C2O[Si](C(C)C)(C(C)C)O1 (configuration not stated),> 200 µM,18.6 µM,–
Cc1nnc(NS(=O)(=O)c2ccc(N=Nc3cc(N=Nc4ccc(S(=O)(=O)Nc5nnc(C)s5)cc4)c4c(NC(=O)C(Cl)Cl)cccc4c3OC(=O)C(Cl)Cl)cc2)s1 (tested in a mixture with another compound),–,–,inactive
O=[N+]([O-])C(=C(N1CCOCC1)N1CCOCC1)/C(Cl)=C(\Cl)Br,> 200 µM,9.77 µM,–
CNC(=O)N(CCC#N)CCN(C(=O)N(C)C)c1ccccc1,> 200 µM,> 200 µM,–
CCOC(=O)c1c(NC(=O)C(F)(F)F)[nH]c(SSc2[nH]c(NC(=O)C(F)(F)F)c(C(=O)OCC)c2C(=O)OCC)c1C(=O)OCC,> 89.1 µM,4.27 µM,–
O=C1C(Cl)=C(Cl)C(=O)N1c1ccc(Cl)c(Cl)c1Cl,–,–,inactive
[Ni+2].[O-]/C(=N\N=C/c1cccc(C(F)(F)F)c1)c1ccncc1.[O-]/C(=N\N=C\c1cccc(C(F)(F)F)c1)c1ccncc1,> 100 µM,15.8 µM,–
NCCCCNCCCNC(=O)c1csc(-c2nc(CCN)sc2Cl)n1,> 302 µM,18.6 µM,–
Nc1nc(SCc2ccccn2)c2ncn(C3CCCC3)c2n1,> 200 µM,110 µM,–

SMILES,EC50,IC50,outcome
CC(CO)S(=O)(=O)O (configuration not stated),> 200 µM,> 200 µM,–
Cc1cccc2c(N)c3cccc(C(=O)NCC[N+]4(Cc5ccc([N+](=O)[O-])cc5)CCOCC4)c3nc12,> 200 µM,30.2 µM,–
COc1cc(C(=O)N2CCc3c([nH]c4c([N+](=O)[O-])c(OC)ccc34)C2C)cc(OC)c1OC (configuration not stated),–,–,inactive
O=C1N[C@@H]2CCC[C@@H]2[C@@H]1c1ccc(Cl)cc1,> 380 µM,155 µM,–
O=C(OCCCl)c1ccccc1NC(=O)N1CCOCC1,–,–,inactive
N#CCCN(CCC#N)c1ccc(/C=C2\N=C(COc3ccc(Cl)cc3Cl)OC2=O)cc1,> 537 µM,490 µM,–
CC12CC3(C)CC(C)(C1)CC(C(NC(C)(C)C)C(=O)O)(C2)C3 (configuration not stated),–,–,inactive
COc1cccc(/C=c2\[nH]c(=O)/c(=C/c3cccc(OC)c3OC)[nH]c2=O)c1OC,> 9.12 µM,> 9.12 µM,–
Nc1nc2ncn(COC(CO)CO)c2c(=O)[nH]1,> 200 µM,> 200 µM,–
Clc1cc(Cl)c2n[se]nc2c1,–,–,inactive
CC(C)(C)C(=O)/C=C/c1ccc(Cl)cc1,> 32.4 µM,> 32.4 µM,–
O=C(O)c1ccccc1-c1c2ccc(=Nc3ccccc3)cc-2oc2cc(Nc3ccc(S(=O)(=O)O)cc3)ccc12,14.1 µM,> 200 µM,–
CCOC(=O)C(C)(C(=O)OCC)/C(Cl)=C\Cl,> 200 µM,> 200 µM,–
Nc1ccc(/C=C/c2ccc(NS(=O)(=O)c3ccnc4c(O)c(C(=O)O)ccc34)cc2S(=O)(=O)O)c(S(=O)(=O)O)c1,69.2 µM,> 100 µM,–
C=C1C2CC[C@H]3C45CO[C@@](O)(C(O)[C@@H]4C(C)(C)C=CC5=O)C3(C2)C1OC(C)=O (some centres not stated),> 339 µM,23.4 µM,–
CN(C(=O)c1ccco1)C(=S)N1CCN(c2ccccc2)CC1,> 110 µM,30.2 µM,–
CC(=O)CCN1CC2CN=NC2(C#N)C1 (configuration not stated),> 200 µM,46.8 µM,–
CNS(=O)(=O)NN(C)S(=O)(=O)c1ccccc1,> 891 µM,148 µM,–
CN(C)c1nc2n(CCO)ccnc-2c(=O)n1,> 100 µM,> 100 µM,–
CCC(C)C(NC(=O)c1ccccc1SC(=O)CCC[n+]1ccccc1)C(N)=O (configuration not stated),> 75.9 µM,4.79 µM,–
O=C(/C=C/c1ccc(OCCSCCCCCCCCCCSCCOc2ccc(/C=C/C(=O)c3ccc(Cl)cc3)cc2)cc1)c1ccc(Cl)cc1,> 12.9 µM,12 µM,–
CSC12c3cc(C)n(-c4ccc(I)cc4)c3CC(C)(C)CN1C(=O)C2Oc1ccccc1 (configuration not stated),> 200 µM,75.9 µM,–
COc1ccc2c(c1)CCCN1CCc3cc(OC)c(OC)cc3C21 (configuration not stated),> 200 µM,> 200 µM,–
COC(=O)C(Cc1ccccc1)NP(=O)(O)OCC1OC(n2cc(I)c(=O)[nH]c2=O)CC1O (configuration not stated),> 200 µM,> 200 µM,–
[pH]1p2[pH]p3p1p3[pH]2.c1cc[c]([Ge]([c]2ccccc2)[c]2ccccc2)cc1.c1cc[c]([Ge]([c]2ccccc2)[c]2ccccc2)cc1.c1cc[c]([Ge]([c]2ccccc2)[c]2ccccc2)cc1,–,–,inactive
COc1cc2ccc3c4ccccc4cnc3c2cc1OC,> 89.1 µM,> 89.1 µM,–
CCC(C)NC(=S)N/N=C(\C)c1ccccn1 (configuration not stated),> 0.2 µM,0.0158 µM,–

SMILES,EC50,IC50,outcome
CCC[N+]12CC=C(CO)C1C(O)CC2 (configuration not stated),> 891 µM,> 891 µM,–
CC(=O)NC1C(OC(C)C(=O)NC(C(=O)NC(CCC(=O)NCCCNC2c3ccccc3Nc3cccc([N+](=O)[O-])c32)C(N)=O)C(C)C)C(O)C(CO)OC1(C)OCc1ccccc1 (configuration not stated),> 10 µM,1.74 µM,–
C1=C(c2ccccc2)C(N2CCOCC2)Oc2ccccc21 (configuration not stated),> 200 µM,89.1 µM,–
COc1ccc(/C=C/C(C(=O)O)C(=O)O)cc1,> 398 µM,56.2 µM,–
COC(=O)OC[C@H]1O[C@@H](n2cc(C)c(=O)[nH]c2=O)CC1OC(=O)OC (some centres not stated),> 200 µM,> 200 µM,–
Cc1cc(S(=O)(=O)Nc2nc(N)nc(N3CCCCC3)n2)c(S)cc1Cl,> 200 µM,> 200 µM,–
CN(C)C(=O)Oc1c(-c2ccccc2)c(=O)n2c3ccccc3n3c(=O)n(C)c(=O)c1c23,> 1.26 µM,> 1.26 µM,–
CCOC(=O)/C(=C/c1ccccc1)N(CC)CC,> 55 µM,> 55 µM,–
CNC(=O)N1CN(c2ccccc2)C2(CCN(CCCC(=O)c3ccc(F)cc3)CC2)C1=O,> 200 µM,10.5 µM,–
OC1CN2CC[C@H](O)C2C(O)[C@@H]1O (some centres not stated),61.7 µM,1320 µM,–
CCN(CC)c1ccc(C(=O)c2ccccc2C(=O)O)c(O)c1,–,–,inactive
N=C(N)N,> 1000 µM,> 1000 µM,–
O=C1[C@H]2ON(c3ccccc3)C(c3ccccc3F)[C@H]2C(=O)N1c1ccc(Cc2ccc(N3C(=O)[C@@H]4ON(c5ccccc5)C(c5ccccc5F)[C@@H]4C3=O)cc2)cc1 (some centres not stated),> 9.12 µM,> 9.12 µM,–
CN1CCC/C1=N\c1scc(-c2ccc(Br)cc2)[n+]1-c1ccccc1,> 38 µM,5.75 µM,–
Nc1ccc(SCc2ccc(C(=O)O)cc2)cc1,> 28.2 µM,> 28.2 µM,–
CC(C)(C)SSC(C)(C)C,> 200 µM,> 200 µM,–
Cc1cc(S(=O)(=O)Nc2n[nH]c(=O)n2-c2ccccc2)c(S)cc1Cl,155 µM,> 200 µM,–
CC(=O)C1CC2(C(=O)C1=O)c1ccccc1-c1ccccc12 (configuration not stated),–,–,inactive
CC(=O)N(CCc1ccccc1)C(C)(C#N)c1ccccc1 (configuration not stated),> 200 µM,> 200 µM,–
CCOC(=O)/C(C#N)=C/c1c[nH]c2ccccc12,> 200 µM,158 µM,–
Cc1ccc(S(=O)(=O)N(CCN2C(=O)c3ccccc3C2=O)c2cc3c4c(c2)Oc2cc(N(CCN5C(=O)c6ccccc6C5=O)S(=O)(=O)c5ccc(C)cc5)cc5c2C4(C)c2c(cc(N(CCN4C(=O)c6ccccc6C4=O)S(=O)(=O)c4ccc(C)cc4)cc2O5)O3)cc1,> 100 µM,64.6 µM,–
Cc1noc2c1NC(=O)OCC2,11 µM,490 µM,–
Cc1cc(S(=O)(=O)O)c(NC(=O)C(=O)C2C=CCS2(=O)=O)cc1Cl (configuration not stated),> 631 µM,> 631 µM,–
CN1Cc2cc3c(cc2-c2ccccc21)OCO3,269 µM,282 µM,–
COC(=O)c1cc(C(c2cc(C(=O)OC)c(O)c(Br)c2C)C(Cl)Cl)c(C)c(Br)c1O,> 200 µM,66.1 µM,–
